We go through 21 compounds from patent US20250353848A1, “HETEROCYCLIC PAD4 INHIBITORS” (Celgene Corporation, priority 2022, published 2025).

Sequence of hPAD4 enzyme (Q9UM07 whole entry): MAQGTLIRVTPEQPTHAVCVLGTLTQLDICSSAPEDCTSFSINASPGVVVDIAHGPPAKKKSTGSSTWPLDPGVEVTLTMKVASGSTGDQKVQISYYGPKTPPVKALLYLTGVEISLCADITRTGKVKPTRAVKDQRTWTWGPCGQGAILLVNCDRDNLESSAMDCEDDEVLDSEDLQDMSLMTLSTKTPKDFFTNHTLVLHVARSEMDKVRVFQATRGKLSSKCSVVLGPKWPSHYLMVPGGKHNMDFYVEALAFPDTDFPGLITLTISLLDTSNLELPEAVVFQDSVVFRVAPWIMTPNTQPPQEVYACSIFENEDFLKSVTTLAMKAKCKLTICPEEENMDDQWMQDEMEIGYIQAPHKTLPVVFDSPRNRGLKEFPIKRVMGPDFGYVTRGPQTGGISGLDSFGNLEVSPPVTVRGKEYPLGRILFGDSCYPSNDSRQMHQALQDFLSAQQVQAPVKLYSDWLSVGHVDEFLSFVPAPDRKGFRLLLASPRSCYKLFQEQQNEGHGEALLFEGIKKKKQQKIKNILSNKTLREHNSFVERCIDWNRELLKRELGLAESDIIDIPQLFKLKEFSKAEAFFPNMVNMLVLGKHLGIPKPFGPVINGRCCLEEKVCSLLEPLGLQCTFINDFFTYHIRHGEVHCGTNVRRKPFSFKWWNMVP

In this assay the target is hPAD4 enzyme (Homo sapiens, UniProt Q9UM07). Description: RFMS Assay 1 (rapid-fire mass spectrum PAD4 inhibition assay, BAEE substrate). Type of assay: biochemical. Particulars: 5 nM hPAD4 enzyme, 250 μM BAEE, 30 mins compound and enzyme preincubation at 37° C., 90 min enzyme/substrate reaction. As to the method:
Compounds were solubilized in 100% DMSO to achieve a 10 mM compound concentration. Compound stock solutions were stored at RT. A series of dilutions were prepared in DMSO and mixed 8 times with 20 μL mixing volume. Final top concentration of compound in the assay is 50 μM. Final assay conditions were as follows: • Reaction volume: 26 μl • Assay buffer: 25 mM hepes, pH 7.5, 5 mM NaCl, 1 mM DTT, 0.2 mg/ml BSA, 0.01% CHAPS, 50 μM Calcium, and 5 μM TPEN • Final concentrations: 5 nM hPAD4 enzyme, 250 μM BAEE, and 0.5% DMSO • Total incubation time: 30 mins compound and enzyme preincubation at 37° C., 90 min enzyme/substrate reaction, 30 min reaction with phenyl glyoxal at 37° C. • Stop solution: 40 μl 5% TCA in ACN
0.13 μL of compound solution was added to 13 μL of 10 nM PAD4 in assay buffer. After 30 min 13 μl of 500 μM of BAEE was added in 25 mM hepes, pH 7.5, 5 mM NaCl, 1 mM DTT, 0.2 mg/ml BSA, 0.01% CHAPS, 50 µM Calcium, […] was added and the reaction incubated for 90 min at 37° C. The enzymatic reaction was quenched by addition of 15 μl of 6.1N TCA, 100% Final Concentration is 20%, 35 μl of 8.5 mM phenyl glyoxal (final concentration 4 mM) is then added and the reaction is incubated for 30 min at 37° C.
After 30 minutes the plates are spun down to remove all precipitate. The enzyme reaction was quenched with an equal volume of methanol containing internal standard (modified citrulline). Samples were loaded onto the Rapid Fire RF300 system (Agilent) wherein they were first sipped for 1000 ms and then directly loaded to a C18 separations cartridge using a mixture of acetonitrile containing 0.01% formic acid for 3000 ms desalting. The flow rate of the mobile phase was 1.5 ml/min. Once the samples were eluted from the cartridge, a mobile phase of acetonitrile containing 0.01% formic acid was used to move the samples into the mass spectrometer for 4000 ms at a flow rate of 1.25 ml/min/Sciex AP15500 triple quadrupole mass spectrometer (Applied Biosystems) equipped with ESI was used to analyze the peptidyl citrulline and internal standard ions.
MRM transition of product and internal standard were monitored at m/z 424.5 to 350.4 and m/z 293 to 247 respectively. The dwell time for each transition was set at 200 ms, and the ESI voltage was used at 5500 with a source temperature of 400° C. Extracted ion peaks for each transition were integrated using the Rapid Fire Integrator software. Peak area of analyte was normalized with internal standard.).
For `Cn1c(-c2cc3cccc(OCCc4cccnc4)c3n2CC2CC2)nc2cc3c(nc21)CCN(C[C@H](N)CF)C3=O` [Example 56, (S)-7-(2-amino-3-fluoropropyl)-2-(1-(cyclopropylmethyl)-7-(2-(pyridin-3-yl)ethoxy)-1H-indol-2-yl)-3-methyl-3,5,6,7-tetrahydro-8H-imidazo[4,5-b][1,6]naphthyridin-8-one], the IC50 – broadly, the midpoint of a concentration-inhibition curve – is at most 10 nM.
In the case of `C[C@H](COc1cccc2cc(-c3nc4cc5c(nc4n3C)CCN(C[C@H](N)CF)C5=O)n(CC3CC3)c12)n1cnc(C#N)c1` [Example 91, 1-((R)-1-((2-(7-((S)-2-amino-3-fluoropropyl)-3-methyl-8-oxo-5,6,7,8-tetrahydro-3H-imidazo[4,5-b][1,6]naphthyridin-2-yl)-1-(cyclopropylmethyl)-1H-indol-7-yl)oxy)propan-2-yl)-1H-imidazole-4-carbonitrile] it was 101 to 500 nM; in that of `C[C@@H](COc1cccc2cc(-c3nc4cc5c(nc4n3C)CCN(C[C@H](N)CF)C5=O)n(CC3CC3)c12)n1ccnc1` [Example 80, 2-(7-((S)-2-(1H-imidazol-1-yl)propoxy)-1-(cyclopropylmethyl)-1H-indol-2-yl)-7-((S)-2-amino-3-fluoropropyl)-3-methyl-3,5,6,7-tetrahydro-8H-imidazo[4,5-b][1,6]naphthyridin-8-one], 11 to 100 nM.
`Cn1c(-c2cc3cccc(OCCc4ccncc4)c3n2CC2CC2)nc2cc3c(nc21)CCN(C[C@H](N)CF)C3=O` [Example 57, (S)-7-(2-amino-3-fluoropropyl)-2-(1-(cyclopropylmethyl)-7-(2-(pyridin-4-yl)ethoxy)-1H-indol-2-yl)-3-methyl-3,5,6,7-tetrahydro-8H-imidazo[4,5-b][1,6]naphthyridin-8-one] registered an IC50 of 11 to 100 nM.
In the case of `Cn1c(-c2cc3cccc(CCCn4cnc(F)c4)c3n2CC2CC2)nc2cc3c(nc21)CCN(C[C@H](N)CF)C3=O` [Example 99, (S)-7-(2-amino-3-fluoropropyl)-2-(1-(cyclopropylmethyl)-7-(3-(4-fluoro-1H-imidazol-1-yl)propyl)-1H-indol-2-yl)-3-methyl-3,5,6,7-tetrahydro-8H-imidazo[4,5-b][1,6]naphthyridin-8-one], the IC50 was 11 to 100 nM.
Regarding `C[C@H](COc1cccc2cc(-c3nc4cc5c(nc4n3C)CCN(C[C@H](N)CF)C5=O)n(CC3CC3)c12)n1cncc1C#N` [Example 94, 1-((R)-1-((2-(7-((S)-2-amino-3-fluoropropyl)-3-methyl-8-oxo-5,6,7,8-tetrahydro-3H-imidazo[4,5-b][1,6]naphthyridin-2-yl)-1-(cyclopropylmethyl)-1H-indol-7-yl)oxy)propan-2-yl)-1H-imidazole-5-carbonitrile], the IC50 lay within 101 to 500 nM.
In the case of `COc1cccc2cc(-c3nc4cc5c(nc4n3C)CCN(C[C@H](N)CF)C5=O)n(CC3CC3(F)F)c12` (stereo partly drawn) [Example 4, 7-((S)-2-amino-3-fluoropropyl)-2-(1-((2,2-difluorocyclopropyl)methyl)-7-methoxy-1H-indol-2-yl)-3-methyl-3,5,6,7-tetrahydro-8H-imidazo[4,5-b][1,6]naphthyridin-8-one], the IC50 lay within 101 to 500 nM.
In the case of `Cn1c(-c2cc3cccc(OCCn4ccnc4C#N)c3n2CC2CC2)nc2cc3c(nc21)CCN(C[C@H](N)CF)C3=O` [Example 89, (S)-1-(2-((2-(7-(2-amino-3-fluoropropyl)-3-methyl-8-oxo-5,6,7,8-tetrahydro-3H-imidazo[4,5-b][1,6]naphthyridin-2-yl)-1-(cyclopropylmethyl)-1H-indol-7-yl)oxy)ethyl)-1H-imidazole-2-carbonitrile], the IC50 fell in the range of 101 to 500 nM.
For `COc1cccc2cc(-c3nc4cc5c(nc4n3C)CCN(C[C@H](N)CF)C5=O)n(CC(F)F)c12` [Example 3, (S)-7-(2-amino-3-fluoropropyl)-2-(1-(2,2-difluoroethyl)-7-methoxy-1H-indol-2-yl)-3-methyl-3,5,6,7-tetrahydro-8H-imidazo[4,5-b][1,6]naphthyridin-8-one], the IC50 lay within 101 to 500 nM.
As for `C[C@@H](Cn1cnc(F)c1)Oc1cccc2cc(-c3nc4cc5c(nc4n3C)CCN(C[C@H](N)CF)C5=O)n(CC3CC3)c12` [Example 66, 7-((S)-2-amino-3-fluoropropyl)-2-(1-(cyclopropylmethyl)-7-(((S)-1-(4-fluoro-1H-imidazol-1-yl)propan-2-yl)oxy)-1H-indol-2-yl)-3-methyl-3,5,6,7-tetrahydro-8H-imidazo[4,5-b][1,6]naphthyridin-8-one], the figure is at most 10 nM; as for `Cn1c(-c2cc3cccc(OCC(F)n4ccnc4)c3n2CC2CC2)nc2cc3c(nc21)CCN(C[C@H](N)CF)C3=O` (single isomer, unassigned) [Example 79b], 11 to 100 nM.
As for `CC(C(F)Oc1cccc2cc(-c3nc4cc5c(nc4n3C)CCN(C[C@H](N)CF)C5=O)n(CC3CC3)c12)n1ccnc1` (single isomer, unassigned) [Example 78b], the figure is at most 10 nM; as for `Cn1c(-c2cc3cccc(NC(=O)Cn4ccnc4)c3n2CC2CC2)nc2cc3c(nc21)CCN(C[C@H](N)CF)C3=O` [Example 100, (S)—N-(2-(7-(2-amino-3-fluoropropyl)-3-methyl-8-oxo-5,6,7,8-tetrahydro-3H-imidazo[4,5-b][1,6]naphthyridin-2-yl)-1-(cyclopropylmethyl)-1H-indol-7-yl)-2-(1H-imidazol-1-yl)acetamide], 501 to 1000 nM.
In the case of `Cn1c(-c2cc3cccc(OC(C)(F)Cn4ccnc4)c3n2CC2CC2)nc2cc3c(nc21)CCN(C[C@H](N)CF)C3=O` (single isomer, unassigned) [Example 76a] it was 11 to 100 nM; in that of `C[C@@H](COc1cccc2cc(-c3nc4cc5c(nc4n3C)CCN(C[C@H](N)CF)C5=O)n(CC3CC3)c12)n1cncc1C#N` [Example 88, 1-((S)-1-((2-(7-((S)-2-amino-3-fluoropropyl)-3-methyl-8-oxo-5,6,7,8-tetrahydro-3H-imidazo[4,5-b][1,6]naphthyridin-2-yl)-1-(cyclopropylmethyl)-1H-indol-7-yl)oxy)propan-2-yl)-1H-imidazole-5-carbonitrile], 101 to 500 nM.
`C[C@@H](Cn1ccnc1)Oc1cccc2cc(-c3nc4cc5c(nc4n3C)CCN(C[C@H](N)CF)C5=O)n(CC3CC3)c12` [Example 63, 2-(7-(((S)-1-(1H-imidazol-1-yl)propan-2-yl)oxy)-1-(cyclopropylmethyl)-1H-indol-2-yl)-7-((S)-2-amino-3-fluoropropyl)-3-methyl-3,5,6,7-tetrahydro-8H-imidazo[4,5-b][1,6]naphthyridin-8-one] yielded an IC50 of 11 to 100 nM.
As for `Cn1c(-c2cc3cccc(/C=C/Cn4cncc4F)c3n2CC2CC2)nc2cc3c(nc21)CCN(C[C@H](N)CF)C3=O` [Example 98, (S,E)-7-(2-amino-3-fluoropropyl)-2-(1-(cyclopropylmethyl)-7-(3-(5-fluoro-1H-imidazol-1-yl)prop-1-en-1-yl)-1H-indol-2-yl)-3-methyl-3,5,6,7-tetrahydro-8H-imidazo[4,5-b][1,6]naphthyridin-8-one], the figure is 101 to 500 nM; as for `Cn1c(-c2cc3cccc(OCCc4ccccn4)c3n2CC2CC2)nc2cc3c(nc21)CCN(C[C@H](N)CF)C3=O` [Example 58, (S)-7-(2-amino-3-fluoropropyl)-2-(1-(cyclopropylmethyl)-7-(2-(pyridin-2-yl)ethoxy)-1H-indol-2-yl)-3-methyl-3,5,6,7-tetrahydro-8H-imidazo[4,5-b][1,6]naphthyridin-8-one], 101 to 500 nM; as for `COc1cccc2cc(-c3nc4cc5c(nc4n3C)CCN(C[C@H]3COCCN3)C5=O)n(CCOC(F)F)c12` [Example 28, (S)-2-(1-(2-(difluoromethoxy)ethyl)-7-methoxy-1H-indol-2-yl)-3-methyl-7-(morpholin-3-ylmethyl)-3,5,6,7-tetrahydro-8H-imidazo[4,5-b][1,6]naphthyridin-8-one], 501 to 1000 nM.
For the compound `CC(C(F)Oc1cccc2cc(-c3nc4cc5c(nc4n3C)CCN(C[C@H](N)CF)C5=O)n(CC3CC3)c12)n1ccnc1` (single isomer, unassigned) [Example 78a], the IC50 was 11 to 100 nM.
As for `[2H]c1nc([2H])n(CCOc2cccc3cc(-c4nc5cc6c(nc5n4C)CCN(C[C@H](N)CF)C6=O)n(CC4CC4)c23)c1[2H]` [Example 90, (S)-2-(7-(2-(1H-imidazol-1-yl-d3)ethoxy)-1-(cyclopropylmethyl)-1H-indol-2-yl)-7-(2-amino-3-fluoropropyl)-3-methyl-3,5,6,7-tetrahydro-8H-imidazo[4,5-b][1,6]naphthyridin-8-one], the figure is at most 10 nM.
